Source: patent US7220725B2, “Pharmaceutical composition comprising an analgesic peptide and method for treating pain” (S.I.S. Shulov Institute for Science Ltd., priority 2000, dated 2007)
Square brackets hold non-standard residues; d marks the D form. * marks the point of attachment. pGlu = O=C1CC[C@@H](C(=O)O)N1; Octanoyl = CCCCCCCC(=O)*

Test system: HCl induced pain
Experiment: Analgesic assay: licks after subcutaneous HCl injection following topical ointment
Format: in vivo, hamsters
Protocol: In each test, a few tens of hamsters of similar weight and age were used. The hamsters were divided into groups according to the number of samples to be tested. Ointment (50% Lanolin and 50% Vaseline) containing the tested substance was applied to the animal's fur on the back region. The fur was not removed so as to ensure that no damage to the skin occurred. A control group of hamsters was treated with ointment without the fraction of the invention. Hamsters were treated by topical application for 6, 14, 21 or 28 consecutive days. The test for analgesity was conducted following the last application of the ointment. In an alternate protocol, analgesity was tested following a single application of the ointment.
Subsequently to application of the ointment, the hamsters “clean” themselves by dispersing the ointment all over their body with their tongue and legs. Thus, some of the ointment is introduced into the oral cavity and possibly also into the intestine of the hamsters.
In a typical test, a constant amount of ointment with or without an analgesic substance is applied to each animal for a predetermined period of one or more days. Following this period, pain is induced by a subcutaneous injection of 0.5 ml of 1N HCl/0.1 kg body weight in the femur region. The hamsters respond to the HCl injection by touching the area of injection with the tongue, this being called a “lick”. 20 minutes after injection the hamster is observed for 60 min and the number of “licks” are counted. The number of “licks” serves as a quantitative indication of the HCl induced pain.
The analgesic effect is determined by comparing the mean number of “licks” in control animals to the number in treated animals. The significance of the difference was determined using t-test statistics.
0.6 mg of pENW, pENWK-C8 or pENWGAT (a dimer of pENW) were dissolved in 5 ml of DDW, mixed by an ultrasonic mixer for 2 minutes and then dissolved in […] of ointment. The final peptide concentration was 0.002 mg/gr.
6 applications were made over a period of 4 weeks. The test for analgesity was conducted 10 days following the last application of the ointment.
Compositions at a concentration of 0.020 mg/g were prepared as in Example 1 containing the following active ingredients: pENW, pEEW, or pENTW or pENWT. 6 applications were made over a period of 5 weeks. The results are summarized below:
A composition containing pENW—C8 at a concentration of 0.002 mg/g ointment was prepared as in Example 1. A single application was made to the animals, and analgesity was assayed 11, 23 and 48 days post-application. Ointment without an active substance was applied to the control animals.

[1] = Example 1: 0.002 mg/gr in ointment, topical, 6 applications over 4 weeks, tested 10 days after last application, control 113.9
[2] = Example 2: 0.020 mg/g in ointment, topical, 6 applications over 5 weeks, control 117

Row | Substance | mean number of licks [1] | mean number of licks [2] | mean number of licks (Example 3: 0.002 mg/g ointment, single application, 11 days post application, control 106) | mean number of licks (Example 3: 0.002 mg/g ointment, single application, 23 days post application, control 106) | mean number of licks (Example 3: 0.002 mg/g ointment, single application, 48 days post application, control 106)
1 | pGLU-ASN-TRP-LYS(octanoyl)-OH ([pGlu]NWK(Octanoyl)-OH; SMILES CCCCCCCC(=O)NCCCC[C@H](NC(=O)[C@H](Cc1c[nH]c2ccccc12)NC(=O)[C@H](CC(N)=O)NC(=O)[C@@H]1CCC(=O)N1)C(=O)O) [pENWK-C8] | 37.9 |  |  |  | 
2 | pGLU-ASN-TRP—OH [pENW] | 59.7 | 44 |  |  | 
3 | pGLU-GLU-TRP—OH [pEEW] |  | 35 |  |  | 
4 | pGlu-Asn-Trp-O-octyl [pENW—C8] |  |  | 66 | 35.7 | 62.4
